Data on two compounds can be found in patent publication US20040106148A1, “Polypeptides” (priority 2000, published 2004).

Experiment [1] addresses mouse centaurin-β2 PH domain (residues 266 to 390), GST fusion (Mus musculus, UniProt Q6ZQK5). The experiment can be described thus: Protein-lipid overlay. Type of experiment: binding. The following applies: FIG. 2. As to the method:
FIG. 2. Phosphoinositide binding properties of the novel PH domains. The ability of the indicated GST fusion proteins to bind a variety of phosphoinositides was analysed using a protein-lipid overlay. Serial dilutions of the indicated phosphoinositides (100 pmol, 50 pmol, 25 pmol, 12.5 pmol, 6.3 pmol, 3.1 pmol and 1.6 pmol) were spotted onto a nitrocellulose membranes which were then incubated with the purified GST fusion proteins. The membranes were washed and the GST-fusion proteins bound to the membrane by virtue of their interaction with lipid were detected using a GST antibody. A representative of at least 3 separate experiments carried out is shown.
(§1) Cloning of PH domains and preparation of expression constructs. All the human and mouse EST's were obtained from the I.M.A.G.E. Consortium and sequenced. The plant EST (accession number T04439) encoding a full length clone of AtPH1 was obtained from the Arabidopsis Biological Research. Centre (Ohio University). The sequence of each EST was verified and the full length PH domain of each EST was amplified by PCR using the Hi-fidelity PCR system with primers designed to incorporate a Kozak site, an initiating ATG codon followed by a myc epitope tag and a stop codon after the PH domain. […]

Experiment [2] addresses T1, human PEPP1 PH domain (Ser-Ala-Ser to Arg-Pro-Gln, accession N31123), GST fusion (Homo sapiens, UniProt Q9H4M7).
T1 construct: DNA probe corresponding to the N-terminal 15 to 169 residues of PEPP1; made in house; host or cells: E. coli BL21 (pGEX4T-1)
The experiment is described as follows: Surface plasmon resonance (BIACore), GST fusion binding to phosphoinositide in supported lipid monolayer. To be noted: supported phosphatidylcholine monolayers, 1:1 binding model, NB, no binding detected, read-out: Apparent Kd.
Source text: as §1
Expression of GST-PH domains in E.coli. The pGEX4T-1 constructs encoding the PH domains of FAPP1, AtPH1, PEPP1, LL5α, LL5β, evectin-2 and PH30 were transformed into BL21 E.coli cells and a 0.5 L culture was grown at 37° C. in Luria Broth containing 100 μg/ml ampicillin, until the absorbance at 600 nm was 0.6. […]
Kinetic analyses of the interactions between the GST PH domain fusions and the polyphosphoinositides were made using surface plasmon resonance based procedures as described previously, with the following modifications. […] Data were analysed using the bimolecular interaction model and the global fitting feature of the BIAevaluation 3 software for several sensorgrams at different protein concentrations. […]
Background: In SPR one partner is held on a chip, and binding of the other changes the refractive index at the surface.

T1 sequence (Q9H4M7 15-169): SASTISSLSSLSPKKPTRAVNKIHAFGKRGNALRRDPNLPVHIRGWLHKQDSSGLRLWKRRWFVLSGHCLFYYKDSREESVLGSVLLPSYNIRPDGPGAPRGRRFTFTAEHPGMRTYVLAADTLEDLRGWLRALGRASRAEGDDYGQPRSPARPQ
Sequence of mouse centaurin-β2 PH domain (residues 266 to 390), GST fusion (Q6ZQK5 266-390): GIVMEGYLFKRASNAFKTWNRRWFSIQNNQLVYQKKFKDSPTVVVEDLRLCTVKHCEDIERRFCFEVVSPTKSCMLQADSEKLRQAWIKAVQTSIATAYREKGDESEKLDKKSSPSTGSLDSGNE

Turning to `CCCCCCCCCCCCCCCC(=O)OC[C@H](COP(=O)(O)O[C@@H]1[C@H](O)[C@H](OP(=O)(O)O)[C@@H](O)[C@H](OP(=O)(O)O)[C@H]1O)OC(=O)CCCCCCCCCCCCCCC` [PtdIns(3,5)P2], the phosphoinositide binding result in experiment [1] is listed as “moderate affinity”.
Take `CCCCCCCCCCCCCCCC(=O)OC[C@H](COP(=O)(O)O[C@@H]1[C@H](O)[C@H](OP(=O)(O)O)[C@@H](O)[C@H](O)[C@H]1O)OC(=O)CCCCCCCCCCCCCCC` [PtdIns3P]: the Kd in experiment [2] turned out to be 325 nM.
